Source: US20250073215A1 (priority 2023, published 2025)

Columns and labels:
cholinergic receptor = conditions: when interacting with the cholinergic receptor ligand; cited from earlier work
BEAS-2B cells = conditions: cited from earlier work
[1] = system: human bronchial epithelial cells (BEAS-2B cells); conditions: in vitro; cited from earlier work
[2] = cited from earlier work

| SMILES | antinociceptive effects (cholinergic receptor) | satisfaction of nicotine craving compared with previously used nicotine products (100 individuals, twice a day for 60 days, participants' opinion) | addictiveness (conclusion of the study) | effect on CRP expression compared with nicotine (BEAS-2B cells; BEAS-2B cells) | effect on tumour development and metastasis compared with nicotine (BEAS-2B cells; NF-κB p65, EGFR, MET by immunoblotting and real-time PCR) | cancer-related proteins (CRPs) with differential expression compared with control group (BEAS-2B cells; transcriptome sequencing, BEAS-2B cells) | sensitivity of BEAS-2B cells (cytotoxicity) compared with nicotine [1] | lethal dose for humans [2] [mg] |
| --- | --- | --- | --- | --- | --- | --- | --- | --- |
| Cc1ccc([C@@H]2CCCN2C)cn1 [(S)-2-Methyl-5-(1-methyl-2-pyrrolidinyl)pyridine] | displays antinociceptive effects | faster | not addictive | greater negative effect on CRP expression than nicotine | greater negative effect on tumour development and metastasis than nicotine | 1208 | more sensitive |  |
| CN1CCC[C@H]1c1cccnc1 [Nicotine, 3-[(2S)-1-methyl-2-pyrrolidinyl]pyridine] |  |  |  |  |  |  |  | 50 to 100 |
